# Where “and” joins values, the source holds several entries; their conditions need not be identical. Identical values can stand only once.
# Assays:
# [1] = biological target: T1, CHOK1 cells engineered to overexpress human CCR2 (Homo sapiens, UniProt P41597); experiment: Antibody dependent cellular cytotoxicity (ADCC) reporter assay (Example 199); type: cell-based; details: with anti-cotinine antibody SEQ ID NO: 11/12; CHOK1-human CCR2 target cells, Jurkat FcγRIIIa NFAT-luciferase reporter cells; 12-18 hours; read-out: ADCC Reporter Assay pEC50 (converted)
# T1 construct: expressed in transfected cells; host or cells: CHOK1 cells
# Outline: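 CHOK1-hCCR2 target cells are co-incubated for 12–18 h with Jurkat FcγRIIIa/NFAT-luciferase reporter cells, ARM compound (1 pM–10 μM) and anti-cotinine antibody with a DE-mutant human IgG1 Fc (0.01–200 μg/mL). Luminescence is expressed as signal:background against no-compound wells; EC50 comes from nonlinear fit and is reported as pEC50, averaged across runs.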
# [2] = biological target: Anti-cotinine antibody (SEQ ID NO: 11 / SEQ ID NO: 12, rabbit variable region with human IgG1 Fc domain); experiment: Binding of anti-cotinine antibody to ARM compounds by SPR, Biacore T200, 37° C. (Example 202); details: pH 7.4, rabbit variable region/human IgG1 Fc antibody captured on protein A
# Outline: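 Antibody captured on protein A chip. Compounds injected (3-fold, 5-point, top 200 nM) at 100 μL/min with 200 s association and 2000 s dissociation, at 37° C. in HEPES pH 7.4 buffer with 1% DMSO. Double-referenced data fit to 1:1 kinetics. Kd = koff/kon, reported as pKd, averaged over runs.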
# [3] = biological target: human alpha1 nicotinic acetylcholine (nACh) receptor (Homo sapiens, UniProt P02708+Q07001); experiment: Nicotinic acetylcholine receptor antagonism assay, IONFlux automated patch clamp (Example 203); type: cell-based; details: for IC50: nAChR antagonism, ACh stimulated, patch clamp; for Emax at 100 µM: maximum percentage antagonism at maximum concentration tested 100 μM; for Emax at 10 µM: maximum percentage antagonism at maximum concentration tested 10 μM
# Outline: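 Human α1 nAChR-expressing cells were preincubated with compound (top 10 μM or 100 μM), then stimulated with 10 mM ACh; peak currents were recorded by IONFlux automated patch clamp. Percent inhibition versus ACh-alone control was vehicle- and rundown-corrected, then fitted to give IC50, with maximal antagonism at the top concentration; recordings with control current <500 pA were excluded.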
# Chain of human alpha1 nicotinic acetylcholine (nACh) receptor (P02708 21-457): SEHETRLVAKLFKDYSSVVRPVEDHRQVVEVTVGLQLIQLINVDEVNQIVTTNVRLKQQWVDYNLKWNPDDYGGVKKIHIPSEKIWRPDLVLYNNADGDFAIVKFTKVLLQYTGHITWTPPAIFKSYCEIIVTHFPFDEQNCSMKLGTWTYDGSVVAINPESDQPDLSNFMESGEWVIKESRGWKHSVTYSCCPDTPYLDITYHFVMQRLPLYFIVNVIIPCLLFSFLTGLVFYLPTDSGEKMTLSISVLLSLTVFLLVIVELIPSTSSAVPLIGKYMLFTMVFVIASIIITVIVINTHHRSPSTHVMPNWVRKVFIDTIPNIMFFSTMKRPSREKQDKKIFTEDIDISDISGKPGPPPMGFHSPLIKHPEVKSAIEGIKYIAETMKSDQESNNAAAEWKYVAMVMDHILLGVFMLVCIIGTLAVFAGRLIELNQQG
# Chain of human alpha1 nicotinic acetylcholine (nACh) receptor (P11230 24-501 partner): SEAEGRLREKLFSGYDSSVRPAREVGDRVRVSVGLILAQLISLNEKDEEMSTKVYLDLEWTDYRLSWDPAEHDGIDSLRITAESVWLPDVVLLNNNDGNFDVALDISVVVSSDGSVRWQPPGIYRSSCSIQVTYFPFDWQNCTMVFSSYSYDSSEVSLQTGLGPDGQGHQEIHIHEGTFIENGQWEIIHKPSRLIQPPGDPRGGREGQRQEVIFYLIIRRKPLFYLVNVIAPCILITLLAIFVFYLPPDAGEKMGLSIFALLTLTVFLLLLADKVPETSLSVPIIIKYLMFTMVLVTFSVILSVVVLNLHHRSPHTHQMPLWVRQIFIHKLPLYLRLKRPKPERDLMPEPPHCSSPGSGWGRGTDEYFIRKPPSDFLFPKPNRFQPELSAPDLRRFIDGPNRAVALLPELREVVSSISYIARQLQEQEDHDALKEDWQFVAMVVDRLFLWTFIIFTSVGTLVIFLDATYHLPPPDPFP
# Chain of human alpha1 nicotinic acetylcholine (nACh) receptor (Q07001 22-517): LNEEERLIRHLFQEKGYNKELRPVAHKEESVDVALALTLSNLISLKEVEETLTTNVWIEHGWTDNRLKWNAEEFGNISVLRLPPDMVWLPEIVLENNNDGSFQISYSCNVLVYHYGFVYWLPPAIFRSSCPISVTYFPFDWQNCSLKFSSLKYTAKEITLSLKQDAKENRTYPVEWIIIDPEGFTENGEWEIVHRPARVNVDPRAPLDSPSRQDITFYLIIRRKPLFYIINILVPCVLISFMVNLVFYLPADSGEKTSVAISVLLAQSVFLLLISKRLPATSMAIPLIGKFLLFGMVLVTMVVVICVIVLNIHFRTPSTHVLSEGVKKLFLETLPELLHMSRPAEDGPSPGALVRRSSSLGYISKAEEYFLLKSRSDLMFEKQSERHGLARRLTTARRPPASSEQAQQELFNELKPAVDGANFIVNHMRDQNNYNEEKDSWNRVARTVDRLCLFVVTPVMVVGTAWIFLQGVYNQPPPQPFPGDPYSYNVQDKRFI
"Emax at 11.11 µM ([3]; maximum percentage antagonism at maximum concentration tested 11.11 μM, read-out: Maximum Response (%)) [%]",Emax at 10 µM ([3]; read-out: Maximum Response (%)) [%],SMILES,EC50 [1],pKd of Antibody for ARM Compound of Formula (I) [2],"Emax at 33.33 µM ([3]; maximum percentage antagonism at maximum concentration tested 33.33 μM, read-out: Maximum Response (%)) [%]",IC50 [3] [nM],"Emax at 30 µM ([3]; maximum percentage antagonism at maximum concentration tested 30 μM, read-out: Maximum Response (%)) [%]",Emax at 100 µM ([3]; read-out: Maximum Response (%)) [%]
–,–,"CC(C)N(C)[C@@H]1CC[C@H](N2CC[C@H](Nc3ncnc4ccc(C(F)(F)F)cc34)C2=O)[C@H](NC(=O)[C@H]2CC[C@@H](NC(=O)CCCO[C@H]3CC[C@H](NC(=O)CCNC(=O)[C@@H]4CC(=O)N(C)[C@H]4c4cccnc4)CC3)CC2)C1 [Example 52, (2S,3S)-N-(3-(((1R,4S)-4-(4-(((1S,4S)-4-(((1R,2S,5R)-5-(Isopropyl(methyl)amino)-2-((S)-2-oxo-3-((6-(trifluoromethyl)quinazolin-4-yl)amino)pyrrolidin-1-yl)cyclohexyl)carbamoyl)cyclohexyl)amino)-4-oxobutoxy)cyclohexyl)amino)-3-oxopropyl)-1-methyl-5-oxo-2-(pyridin-3-yl)pyrrolidine-3-carboxamide]",0.222 nM and 0.294 nM,9.2545,8.3,> 33300,–,–
10,–,"CC(C)N(C)[C@@H]1CC[C@H](N2CC[C@H](Nc3ncnc4ccc(C(F)(F)F)cc34)C2=O)[C@H](NC(=O)[C@H]2CC[C@H](NC(=O)CCOC[C@H]3CC[C@H](COCCNC(=O)[C@H]4CC(=O)N(C)[C@@H]4c4cccnc4)CC3)CC2)C1 [Example 53, (2S,3S)-N-(2-(((1R,4S)-4-((3-(((1R,4R)-4-(((1R,2S,5R)-5-(Isopropyl(methyl)amino)-2-((S)-2-oxo-3-((6-(trifluoromethyl)quinazolin-4-yl)amino)pyrrolidin-1-yl)cyclohexyl)carbamoyl)cyclohexyl)amino)-3-oxopropoxy)methyl)cyclohexyl)methoxy)ethyl)-1-methyl-5-oxo-2-(pyridin-3-yl)pyrrolidine-3-carboxamide]",7.6 nM,9.531,–,> 11100,–,–
–,–,"CC(C)N(C)[C@@H]1CC[C@H](N2CC[C@H](Nc3ncnc4ccc(C(F)(F)F)cc34)C2=O)[C@H](NC(=O)[C@H]2CC[C@H](NC(=O)CCCOC[C@H]3CC[C@@H](COCCNC(=O)[C@H]4CC(=O)N(C)[C@@H]4c4cccnc4)CC3)CC2)C1 [Example 57, (2S,3S)-N-(2-(((1S,4R)-4-((4-(((1R,4R)-4-(((1R,2S,5R)-5-(Isopropyl(methyl)amino)-2-((S)-2-oxo-3-((6-(trifluoromethyl)quinazolin-4-yl)amino)pyrrolidin-1-yl)cyclohexyl)carbamoyl)cyclohexyl)amino)-4-oxobutoxy)methyl)cyclohexyl)methoxy)ethyl)-1-methyl-5-oxo-2-(pyridin-3-yl)pyrrolidine-3-carboxamide]",1.61 nM and 1.48 nM and 5.07 nM,9.685,–,> 30000,47.6,–
–,–,CC(C)N(C)[C@@H]1CC[C@H](N2CC[C@H](Nc3ncnc4ccc(C(F)(F)F)cc34)C2=O)[C@H](NC(=O)CCNC(=O)CCCOC[C@H]2CC[C@@H](COCCNC(=O)[C@H]3CC(=O)N(C)[C@@H]3c3cccnc3)CC2)C1 [Example 62],0.867 nM,9.6305,–,29000,–,67.9
–,–,"CC(C)N(C)[C@@H]1CC[C@H](N2CC[C@H](Nc3ncnc4ccc(C(F)(F)F)cc34)C2=O)[C@H](NC(=O)[C@H]2CC[C@@H](NC(=O)CCOCCOCCNC(=O)CNC(=O)[C@H]3CC(=O)N(C)[C@@H]3c3cccnc3)CC2)C1 [Example 63, (2S,3S)-N-(2-((2-(2-(3-(((1 S,4s)-4-(((1R,2S,5R)-5-(Isopropyl(methyl)amino)-2-((S)-2-oxo-3-((6-(trifluoromethyl)quinazolin-4-yl)amino)pyrrolidin-1-yl)cyclohexyl)carbamoyl)cyclohexyl)amino)-3-oxopropoxy)ethoxy)ethyl)amino)-2-oxoethyl)-1-methyl-5-oxo-2-(pyridin-3-yl)pyrrolidine-3-carboxamide]",0.67 nM and 0.31 nM,8.674,–,38500,–,76.6
–,32.7,"CC(C)N(C)[C@@H]1CC[C@H](N2CC[C@H](Nc3ncnc4ccc(C(F)(F)F)cc34)C2=O)[C@H](NC(=O)[C@H]2CC[C@@H](C3CCN(C(=O)CCOCCOCCNC(=O)[C@H]4CC(=O)N(C)[C@@H]4c4cccnc4)CC3)CC2)C1 [Example 72, (2S,3S)-N-(2-(2-(3-(4-((1S,4s)-4-(((1R,2S,5R)-5-(isopropyl(methyl)amino)-2-((S)-2-oxo-3-((6-(trifluoromethyl)quinazolin-4-yl)amino)pyrrolidin-1-yl)cyclohexyl)carbamoyl)cyclohexyl)piperidin-1-yl)-3-oxopropoxy)ethoxy)ethyl)-1-methyl-5-oxo-2-(pyridin-3-yl)pyrrolidine-3-carboxamide]",7.94 nM,9.8865,–,> 10000,–,–
–,–,CC(C)N(C)[C@@H]1CC[C@H](N2CC[C@H](Nc3ncnc4ccc(C(F)(F)F)cc34)C2=O)[C@H](NC(=O)CCOCCOCCNC(=O)CCOCCOCCNC(=O)[C@H]2CC(=O)N(C)[C@@H]2c2cccnc2)C1 [Example 76],2.51 nM,9.1155,–,32400,–,67.7
–,19.6,CC(C)N(C)[C@@H]1CC[C@H](N2CC[C@H](Nc3ncnc4ccc(C(F)(F)F)cc34)C2=O)[C@H](NC(=O)COCCOCCNC(=O)CCOCCOCCNC(=O)[C@H]2CC(=O)N(C)[C@@H]2c2cccnc2)C1 [Example 77],5.52 nM,9.152,–,> 10000,–,–
–,–,CC(C)N(C)[C@@H]1CC[C@H](N2CC[C@H](Nc3ncnc4ccc(C(F)(F)F)cc34)C2=O)[C@H](NC(=O)[C@H]2CC[C@@H](NC(=O)COCCNC(=O)COCCNC(=O)[C@H]3CC(=O)N(C)[C@@H]3c3cccnc3)CC2)C1 [Example 99],1.99 nM,9.062,–,33100,–,71.1
–,–,"CC(C)N(C)[C@@H]1CC[C@H](N2CC[C@H](Nc3ncnc4ccc(C(F)(F)F)cc34)C2=O)[C@H](NC(=O)CCOCCNC(=O)COCCNC(=O)COCCNC(=O)[C@H]2CC(=O)N(C)[C@@H]2c2cccnc2)C1 [Example 102, (2S,3S)-N-(18-(((1R,2S,5R)-5-(Isopropyl(methyl)amino)-2-((S)-2-oxo-3-((6-(trifluoromethyl)quinazolin-4-yl)amino)pyrrolidin-1-yl)cyclohexyl)amino)-5,11,18-trioxo-3,9,15-trioxa-6,12-diazaoctadecyl)-1-methyl-5-oxo-2-(pyridin-3-yl)pyrrolidine-3-carboxamide]",1.26 nM,9.076,–,66100,–,61.3
–,–,CC(C)N(C)[C@@H]1CC[C@H](N2CC[C@H](Nc3ncnc4ccc(C(F)(F)F)cc34)C2=O)[C@H](NC(=O)CCOCCNC(=O)CCOCCNC(=O)COCCNC(=O)[C@H]2CC(=O)N(C)[C@@H]2c2cccnc2)C1 [Example 105],0.794 nM,9.0705,–,38900,–,75.7
–,–,"CC(C)N(C)[C@@H]1CC[C@H](N2CC[C@H](Nc3ncnc4ccc(C(F)(F)F)cc34)C2=O)[C@H](NC(=O)COCCNC(=O)COCCNC(=O)COCCNC(=O)[C@H]2CC(=O)N(C)[C@@H]2c2cccnc2)C1 [Example 111, (2S,3S)-N-(17-(((1R,2S,5R)-5-(Isopropyl(methyl)amino)-2-((S)-2-oxo-3-((6-(trifluoromethyl)quinazolin-4-yl)amino)pyrrolidin-1-yl)cyclohexyl)amino)-5,11,17-trioxo-3,9,15-trioxa-6,12-diazaheptadecyl)-1-methyl-5-oxo-2-(pyridin-3-yl)pyrrolidine-3-carboxamide]",6.31 nM,9.0855,–,52900,–,67.6

SMILES,"Emax at 11.11 µM ([3]; maximum percentage antagonism at maximum concentration tested 11.11 μM, read-out: Maximum Response (%)) [%]",Emax at 10 µM ([3]; read-out: Maximum Response (%)) [%],EC50 [1],pKd of Antibody for ARM Compound of Formula (I) [2],"Emax at 33.33 µM ([3]; maximum percentage antagonism at maximum concentration tested 33.33 μM, read-out: Maximum Response (%)) [%]",IC50 [3] [nM],"Emax at 30 µM ([3]; maximum percentage antagonism at maximum concentration tested 30 μM, read-out: Maximum Response (%)) [%]",Emax at 100 µM ([3]; read-out: Maximum Response (%)) [%]
"CC(C)N(C)[C@@H]1CC[C@H](N2CC[C@H](Nc3ncnc4ccc(C(F)(F)F)cc34)C2=O)[C@H](NC(=O)CCOCCNC(=O)[C@H]2CC[C@@H](NC(=O)COCCNC(=O)[C@H]3CC(=O)N(C)[C@@H]3c3cccnc3)CC2)C1 [Example 107, (2S,3S)-N-(2-(2-(((1S,4R)-4-((2-(3-(((1R,2S,5R)-5-(Isopropyl(methyl)amino)-2-((S)-2-oxo-3-((6-(trifluoromethyl)quinazolin-4-yl)amino)pyrrolidin-1-yl)cyclohexyl)amino)-3-oxopropoxy)ethyl)carbamoyl)cyclohexyl)amino)-2-oxoethoxy)ethyl)-1-methyl-5-oxo-2-(pyridin-3-yl)pyrrolidine-3-carboxamide]",–,12.2,0.158 nM,9.161,–,> 10000,–,–
